From the NIST ThermoML archive (doi:10.1016/j.fluid.2013.08.029)
± gives the expanded uncertainty stated by the source.

Conditions: 101.33 kPa, Liquid; for speed of sound: Sing-around technique in a fixed-path interferometer; for mass density: Vibrating tube method

Row | Structure (SMILES) | speed of sound (288.15 K) | speed of sound (293.15 K) | mass density (293.15 K) | speed of sound (298.15 K) | speed of sound (303.15 K) | mass density (303.15 K) | speed of sound (308.15 K) | speed of sound (313.15 K) | mass density (313.15 K) | speed of sound (318.15 K) | mass density (288.15 K) | mass density (298.15 K) | mass density (308.15 K) | mass density (318.15 K)
1 | OCCO [1,2-ethanediol] | 1677.5 ± 2.2 m/s | 1665.6 ± 2.2 m/s | 1113.35 ± 0.16 kg/m3 | 1653.9 ± 2.2 m/s | 1642.2 ± 2.2 m/s | 1106.33 ± 0.16 kg/m3 | 1630.6 ± 2.2 m/s | 1618.9 ± 2.2 m/s | 1099.26 ± 0.16 kg/m3 | 1607.3 ± 2.2 m/s |  |  |  | 
2 | CCCCn1cc[n+](C)c1C.F[B-](F)(F)F [1-butyl-2,3-dimethylimidazolium tetrafluoroborate] | 1668.6 ± 2.2 m/s | 1654.9 ± 2.1 m/s | 1196.72 ± 0.15 kg/m3 | 1641.4 ± 2.1 m/s | 1628.7 ± 2.1 m/s | 1189.92 ± 0.15 kg/m3 | 1616.9 ± 2.1 m/s | 1605.1 ± 2.1 m/s | 1183.17 ± 0.15 kg/m3 | 1593.9 ± 2.1 m/s | 1199.9 ± 0.15 kg/m3 | 1193.34 ± 0.15 kg/m3 | 1186.52 ± 0.15 kg/m3 | 1179.54 ± 0.15 kg/m3
3 | CCCCCn1cc[n+](C)c1.F[B-](F)(F)F [1-methyl-3-pentyl-imidazolium tetrafluoroborate] | 1565.2 ± 2.9 m/s | 1552.5 ± 2.9 m/s | 1180.34 ± 1.2 kg/m3 | 1540.2 ± 2.9 m/s | 1528.2 ± 2.9 m/s | 1173.35 ± 1.2 kg/m3 | 1516.3 ± 2.9 m/s | 1504.6 ± 2.9 m/s | 1166.36 ± 1.2 kg/m3 | 1493.1 ± 2.9 m/s | 1183.92 ± 1.2 kg/m3 | 1176.85 ± 1.2 kg/m3 | 1169.85 ± 1.2 kg/m3 | 1162.85 ± 1.2 kg/m3
4 | CCCCCn1cc[n+](C)c1.[Br-] [1-pentyl-3-methylimidazolium bromide] | 1678.6 ± 3 m/s | 1644.2 ± 3 m/s | 1260.52 ± 1.4 kg/m3 | 1617.5 ± 3 m/s | 1596.4 ± 2.9 m/s | 1253.05 ± 1.4 kg/m3 | 1578.9 ± 2.9 m/s | 1563.7 ± 2.9 m/s | 1246.17 ± 1.4 kg/m3 | 1550.2 ± 2.9 m/s | 1264.08 ± 1.4 kg/m3 | 1256.87 ± 1.4 kg/m3 | 1249.57 ± 1.4 kg/m3 | 1242.76 ± 1.4 kg/m3
